From ChEMBL document CHEMBL5291721, “A preclinical secondary pharmacology resource illuminates target-adverse drug reaction associations of marketed drugs” (Nat Commun, 2023)

What was measured:
[1] = target: T1, Equilibrative nucleoside transporter 1 (Homo sapiens, UniProt Q99808)
T1 sequence (Q99808 whole entry): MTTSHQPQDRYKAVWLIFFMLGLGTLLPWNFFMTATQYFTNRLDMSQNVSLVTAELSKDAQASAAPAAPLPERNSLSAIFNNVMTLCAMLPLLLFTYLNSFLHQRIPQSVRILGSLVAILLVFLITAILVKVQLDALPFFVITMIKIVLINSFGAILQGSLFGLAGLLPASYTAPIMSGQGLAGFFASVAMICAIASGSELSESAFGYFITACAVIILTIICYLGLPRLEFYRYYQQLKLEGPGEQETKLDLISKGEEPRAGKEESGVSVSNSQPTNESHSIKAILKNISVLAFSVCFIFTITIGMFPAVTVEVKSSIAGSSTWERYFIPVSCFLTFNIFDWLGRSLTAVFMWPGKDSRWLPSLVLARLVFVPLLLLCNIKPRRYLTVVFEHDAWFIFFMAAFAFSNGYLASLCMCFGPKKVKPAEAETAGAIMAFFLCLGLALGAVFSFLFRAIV

[2] = target: T2, 5-hydroxytryptamine receptor 3A (Homo sapiens, UniProt P46098); type: functional
T2 sequence (P46098 whole entry): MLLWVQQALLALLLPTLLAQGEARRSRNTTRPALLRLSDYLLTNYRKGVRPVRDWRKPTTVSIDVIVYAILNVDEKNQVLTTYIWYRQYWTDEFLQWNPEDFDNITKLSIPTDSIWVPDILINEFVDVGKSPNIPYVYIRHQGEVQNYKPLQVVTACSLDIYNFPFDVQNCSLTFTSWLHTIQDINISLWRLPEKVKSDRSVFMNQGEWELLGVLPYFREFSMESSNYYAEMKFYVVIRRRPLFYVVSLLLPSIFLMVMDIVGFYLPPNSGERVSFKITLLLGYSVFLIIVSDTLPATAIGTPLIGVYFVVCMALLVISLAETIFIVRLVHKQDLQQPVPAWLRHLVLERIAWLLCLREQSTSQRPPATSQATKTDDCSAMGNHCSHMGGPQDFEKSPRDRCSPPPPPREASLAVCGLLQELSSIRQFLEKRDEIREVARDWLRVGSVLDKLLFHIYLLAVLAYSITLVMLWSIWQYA

Bile salt export pump = Bile salt export pump (Homo sapiens, UniProt O95342); type: functional
[3] = target: Beta-1 adrenergic receptor (Homo sapiens, UniProt P08588); type: functional
[4] = target: T3, Muscarinic acetylcholine receptor M2 (Homo sapiens, UniProt P08172); type: functional, cell-based
T3 sequence (P08172 whole entry): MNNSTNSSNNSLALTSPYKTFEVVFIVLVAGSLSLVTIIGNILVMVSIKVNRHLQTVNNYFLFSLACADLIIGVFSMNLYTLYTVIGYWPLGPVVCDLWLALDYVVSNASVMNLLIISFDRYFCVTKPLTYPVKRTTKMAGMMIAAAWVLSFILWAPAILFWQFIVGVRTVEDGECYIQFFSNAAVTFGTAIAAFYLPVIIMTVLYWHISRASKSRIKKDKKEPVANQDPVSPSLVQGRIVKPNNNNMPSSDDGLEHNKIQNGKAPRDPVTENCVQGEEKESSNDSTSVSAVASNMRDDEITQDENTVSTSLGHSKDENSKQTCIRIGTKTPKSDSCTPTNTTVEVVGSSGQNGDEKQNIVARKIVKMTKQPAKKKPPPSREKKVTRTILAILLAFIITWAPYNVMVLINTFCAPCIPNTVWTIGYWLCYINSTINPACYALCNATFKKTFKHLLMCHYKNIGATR

[5] = target: 5-hydroxytryptamine receptor 2B (Homo sapiens, UniProt P41595); type: functional, cell-based
D(3) dopamine receptor = D(3) dopamine receptor (Homo sapiens, UniProt P35462)
[6] = target: Neuronal acetylcholine receptor subunit alpha-4 (Homo sapiens, UniProt P43681)
[7] = target: Sodium-dependent noradrenaline transporter (Homo sapiens, UniProt P23975)
[8] = target: T4, Alpha-2C adrenergic receptor (Homo sapiens, UniProt P18825); type: functional
T4 sequence (P18825 whole entry): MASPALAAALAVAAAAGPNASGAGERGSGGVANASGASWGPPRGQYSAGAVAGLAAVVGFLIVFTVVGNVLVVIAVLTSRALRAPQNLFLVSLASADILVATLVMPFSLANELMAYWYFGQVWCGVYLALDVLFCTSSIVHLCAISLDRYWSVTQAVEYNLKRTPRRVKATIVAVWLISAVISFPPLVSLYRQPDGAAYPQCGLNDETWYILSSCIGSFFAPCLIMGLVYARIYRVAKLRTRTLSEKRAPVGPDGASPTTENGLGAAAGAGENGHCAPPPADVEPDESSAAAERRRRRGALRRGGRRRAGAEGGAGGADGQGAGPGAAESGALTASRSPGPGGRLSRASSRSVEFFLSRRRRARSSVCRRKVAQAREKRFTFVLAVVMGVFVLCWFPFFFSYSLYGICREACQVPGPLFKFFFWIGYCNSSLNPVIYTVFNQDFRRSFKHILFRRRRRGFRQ

[9] = target: T5, Cholecystokinin receptor type A (Homo sapiens, UniProt P32238)
T5 sequence (P32238 whole entry): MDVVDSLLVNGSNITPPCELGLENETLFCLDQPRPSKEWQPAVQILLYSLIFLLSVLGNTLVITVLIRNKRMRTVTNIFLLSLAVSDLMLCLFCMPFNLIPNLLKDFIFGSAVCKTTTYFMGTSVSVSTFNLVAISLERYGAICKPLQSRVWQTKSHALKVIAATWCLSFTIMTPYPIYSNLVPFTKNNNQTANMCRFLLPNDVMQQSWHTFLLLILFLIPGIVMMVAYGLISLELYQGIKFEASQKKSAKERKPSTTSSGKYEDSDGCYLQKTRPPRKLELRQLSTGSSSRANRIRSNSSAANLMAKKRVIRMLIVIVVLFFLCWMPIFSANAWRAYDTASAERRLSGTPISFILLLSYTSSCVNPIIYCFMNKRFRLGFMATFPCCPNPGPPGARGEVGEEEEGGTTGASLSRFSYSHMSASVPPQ

[10] = target: Sodium-dependent dopamine transporter (Homo sapiens, UniProt Q01959)
Note: assay procedure not described here.

Sequence of Sodium-dependent dopamine transporter (Q01959 whole entry): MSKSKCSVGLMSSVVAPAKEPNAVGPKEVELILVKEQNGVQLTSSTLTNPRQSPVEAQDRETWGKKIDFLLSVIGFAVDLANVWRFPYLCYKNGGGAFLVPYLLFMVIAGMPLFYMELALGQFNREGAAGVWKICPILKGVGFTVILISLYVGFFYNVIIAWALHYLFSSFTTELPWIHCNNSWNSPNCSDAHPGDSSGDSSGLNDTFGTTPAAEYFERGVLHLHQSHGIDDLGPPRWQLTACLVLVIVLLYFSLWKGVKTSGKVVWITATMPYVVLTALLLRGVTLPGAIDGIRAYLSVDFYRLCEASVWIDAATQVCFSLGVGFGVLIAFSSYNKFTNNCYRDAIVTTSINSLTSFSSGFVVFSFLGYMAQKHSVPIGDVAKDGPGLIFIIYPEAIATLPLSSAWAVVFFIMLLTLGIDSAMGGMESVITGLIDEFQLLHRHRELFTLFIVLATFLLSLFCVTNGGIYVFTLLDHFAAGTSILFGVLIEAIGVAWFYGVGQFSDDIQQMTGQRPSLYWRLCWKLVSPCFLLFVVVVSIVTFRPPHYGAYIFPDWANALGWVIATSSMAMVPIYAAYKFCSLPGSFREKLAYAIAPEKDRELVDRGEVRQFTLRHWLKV
Sequence of D(3) dopamine receptor (P35462 whole entry): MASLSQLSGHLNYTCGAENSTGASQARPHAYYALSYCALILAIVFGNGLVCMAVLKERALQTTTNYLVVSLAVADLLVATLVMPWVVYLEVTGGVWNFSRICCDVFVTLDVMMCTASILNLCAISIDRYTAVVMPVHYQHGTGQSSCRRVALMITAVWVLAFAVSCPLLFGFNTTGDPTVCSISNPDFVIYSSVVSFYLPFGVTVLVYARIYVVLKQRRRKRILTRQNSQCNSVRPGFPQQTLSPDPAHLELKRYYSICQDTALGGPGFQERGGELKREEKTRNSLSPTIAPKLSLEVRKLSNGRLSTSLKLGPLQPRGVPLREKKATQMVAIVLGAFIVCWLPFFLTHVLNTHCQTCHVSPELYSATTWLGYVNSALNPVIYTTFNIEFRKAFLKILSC
Sequence of Beta-1 adrenergic receptor (P08588 whole entry): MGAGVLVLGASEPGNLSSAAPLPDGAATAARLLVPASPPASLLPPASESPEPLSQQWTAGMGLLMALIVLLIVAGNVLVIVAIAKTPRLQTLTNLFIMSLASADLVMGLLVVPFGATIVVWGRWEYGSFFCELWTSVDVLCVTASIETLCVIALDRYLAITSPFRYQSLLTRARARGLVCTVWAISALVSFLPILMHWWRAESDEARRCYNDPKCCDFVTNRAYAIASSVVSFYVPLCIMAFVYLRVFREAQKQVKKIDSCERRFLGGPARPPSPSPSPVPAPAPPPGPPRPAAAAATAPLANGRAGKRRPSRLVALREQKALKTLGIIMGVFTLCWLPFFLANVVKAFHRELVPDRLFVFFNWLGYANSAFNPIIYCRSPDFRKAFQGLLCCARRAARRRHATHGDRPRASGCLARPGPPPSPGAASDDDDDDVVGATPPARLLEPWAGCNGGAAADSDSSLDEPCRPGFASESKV
Sequence of Bile salt export pump (O95342 whole entry): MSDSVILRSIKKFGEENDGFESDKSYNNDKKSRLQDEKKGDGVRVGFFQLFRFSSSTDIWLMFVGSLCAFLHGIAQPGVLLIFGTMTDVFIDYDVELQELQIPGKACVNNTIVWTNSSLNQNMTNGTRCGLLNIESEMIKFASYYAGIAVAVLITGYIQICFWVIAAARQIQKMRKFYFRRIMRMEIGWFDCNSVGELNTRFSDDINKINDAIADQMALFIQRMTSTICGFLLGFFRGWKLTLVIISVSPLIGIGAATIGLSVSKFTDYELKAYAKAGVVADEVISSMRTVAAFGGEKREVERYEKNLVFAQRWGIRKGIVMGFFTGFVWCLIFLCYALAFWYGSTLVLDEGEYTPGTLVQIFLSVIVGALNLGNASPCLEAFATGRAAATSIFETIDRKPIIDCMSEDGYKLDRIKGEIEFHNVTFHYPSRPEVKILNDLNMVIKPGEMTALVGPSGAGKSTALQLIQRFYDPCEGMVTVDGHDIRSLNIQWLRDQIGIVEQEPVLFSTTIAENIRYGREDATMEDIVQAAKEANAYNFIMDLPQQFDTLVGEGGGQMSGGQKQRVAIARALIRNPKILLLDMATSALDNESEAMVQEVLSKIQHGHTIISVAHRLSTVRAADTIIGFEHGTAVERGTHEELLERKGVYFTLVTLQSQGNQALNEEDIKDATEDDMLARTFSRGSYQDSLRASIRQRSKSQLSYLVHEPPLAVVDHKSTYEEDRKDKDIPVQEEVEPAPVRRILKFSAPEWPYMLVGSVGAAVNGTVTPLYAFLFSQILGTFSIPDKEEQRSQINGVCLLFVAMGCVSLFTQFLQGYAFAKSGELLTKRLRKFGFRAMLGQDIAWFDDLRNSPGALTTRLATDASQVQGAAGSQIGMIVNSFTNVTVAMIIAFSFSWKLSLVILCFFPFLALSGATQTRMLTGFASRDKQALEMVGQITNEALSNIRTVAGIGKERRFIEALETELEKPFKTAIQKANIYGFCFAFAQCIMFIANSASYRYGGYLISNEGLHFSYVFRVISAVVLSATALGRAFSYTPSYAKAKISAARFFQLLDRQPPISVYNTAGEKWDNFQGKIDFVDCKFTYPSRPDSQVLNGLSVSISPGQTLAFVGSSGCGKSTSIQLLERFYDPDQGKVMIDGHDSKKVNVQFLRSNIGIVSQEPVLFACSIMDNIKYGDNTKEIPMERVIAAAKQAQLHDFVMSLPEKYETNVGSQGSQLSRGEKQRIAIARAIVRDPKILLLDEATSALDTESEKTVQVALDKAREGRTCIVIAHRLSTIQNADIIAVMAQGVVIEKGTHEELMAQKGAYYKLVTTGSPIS
Sequence of Sodium-dependent noradrenaline transporter (P23975 whole entry): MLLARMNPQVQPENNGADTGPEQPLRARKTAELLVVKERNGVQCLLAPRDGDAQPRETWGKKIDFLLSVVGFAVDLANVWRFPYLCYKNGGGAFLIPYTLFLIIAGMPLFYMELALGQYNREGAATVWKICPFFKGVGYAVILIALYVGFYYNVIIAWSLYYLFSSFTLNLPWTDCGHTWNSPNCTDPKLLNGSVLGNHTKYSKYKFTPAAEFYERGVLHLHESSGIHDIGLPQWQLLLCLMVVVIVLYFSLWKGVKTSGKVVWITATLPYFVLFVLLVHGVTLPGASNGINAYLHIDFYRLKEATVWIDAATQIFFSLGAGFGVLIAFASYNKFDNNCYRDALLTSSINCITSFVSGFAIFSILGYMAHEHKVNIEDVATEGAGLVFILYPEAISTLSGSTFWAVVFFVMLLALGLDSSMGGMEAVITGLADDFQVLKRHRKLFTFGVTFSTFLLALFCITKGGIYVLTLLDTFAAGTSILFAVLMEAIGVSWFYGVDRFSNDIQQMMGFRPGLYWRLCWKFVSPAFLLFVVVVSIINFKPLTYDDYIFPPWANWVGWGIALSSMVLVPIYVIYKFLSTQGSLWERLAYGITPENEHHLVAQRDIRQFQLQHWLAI
Sequence of Neuronal acetylcholine receptor subunit alpha-4 (P43681 whole entry): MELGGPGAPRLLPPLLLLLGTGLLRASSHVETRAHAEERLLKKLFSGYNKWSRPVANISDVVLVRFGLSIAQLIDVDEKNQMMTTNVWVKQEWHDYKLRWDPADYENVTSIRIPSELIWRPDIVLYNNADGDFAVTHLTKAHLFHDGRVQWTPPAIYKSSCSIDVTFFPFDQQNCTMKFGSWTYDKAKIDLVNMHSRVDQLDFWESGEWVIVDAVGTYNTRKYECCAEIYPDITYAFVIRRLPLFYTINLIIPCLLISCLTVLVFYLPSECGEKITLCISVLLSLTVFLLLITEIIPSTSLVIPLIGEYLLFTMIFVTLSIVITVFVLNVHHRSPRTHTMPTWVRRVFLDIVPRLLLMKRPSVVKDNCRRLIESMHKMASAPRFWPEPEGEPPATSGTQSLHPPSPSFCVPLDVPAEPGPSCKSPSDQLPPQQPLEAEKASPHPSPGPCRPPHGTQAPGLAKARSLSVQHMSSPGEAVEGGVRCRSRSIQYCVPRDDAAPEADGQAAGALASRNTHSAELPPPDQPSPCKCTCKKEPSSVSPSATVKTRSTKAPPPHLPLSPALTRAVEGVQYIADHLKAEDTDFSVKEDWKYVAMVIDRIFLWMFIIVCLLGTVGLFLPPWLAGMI
Sequence of 5-hydroxytryptamine receptor 2B (P41595 whole entry): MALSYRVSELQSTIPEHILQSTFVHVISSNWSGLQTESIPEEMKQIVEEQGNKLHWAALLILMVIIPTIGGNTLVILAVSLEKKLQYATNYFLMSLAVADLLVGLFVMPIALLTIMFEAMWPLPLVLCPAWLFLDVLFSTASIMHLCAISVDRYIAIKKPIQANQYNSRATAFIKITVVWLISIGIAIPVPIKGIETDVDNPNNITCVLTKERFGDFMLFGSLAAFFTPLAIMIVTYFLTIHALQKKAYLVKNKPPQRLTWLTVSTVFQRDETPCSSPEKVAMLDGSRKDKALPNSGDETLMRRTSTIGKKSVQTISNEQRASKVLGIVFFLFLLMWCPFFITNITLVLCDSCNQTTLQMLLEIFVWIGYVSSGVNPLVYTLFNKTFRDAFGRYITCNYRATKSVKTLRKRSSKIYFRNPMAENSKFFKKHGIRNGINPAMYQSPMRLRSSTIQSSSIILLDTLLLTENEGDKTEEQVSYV

AC50 [1]	AC50 [2]	AC50 (Bile salt export pump)	AC50 [3]	AC50 [4]	AC50 [5]	AC50 (D(3) dopamine receptor)	AC50 [6]	AC50 [7]	AC50 [8]	AC50 [9]	AC50 [10]	SMILES
> 30 µM	> 30 µM	> 300 µM	> 10 µM	> 10 µM	> 10 µM	> 10 µM	> 10 µM	> 10 µM	> 10 µM	> 30 µM	> 10 µM	CCOC(=O)[C@H](CCc1ccccc1)N[C@@H](C)C(=O)N1[C@H](C(=O)O)C[C@@H]2CCC[C@@H]21
> 30 µM	> 30 µM	> 300 µM	> 10 µM	> 10 µM	> 10 µM	> 10 µM	> 10 µM	> 10 µM	> 10 µM	> 30 µM	> 10 µM	C[C@]12CCC(=O)C=C1CC[C@@H]1[C@@H]2[C@@H](O)C[C@@]2(C)[C@H]1CC[C@]2(O)C(=O)CO [HYDROCORTISONE]
> 30 µM	> 30 µM	> 300 µM	> 30 µM	> 30 µM	> 30 µM	15 µM	> 30 µM	13 µM	0.81 µM	> 30 µM	> 30 µM	COc1cc2nc(N(C)CCCNC(=O)C3CCCO3)nc(N)c2cc1OC (stereo unspecified) [ALFUZOSIN]

Second part, the molecule before the results:

SMILES	AC50 [1]	AC50 [2]	AC50 (Bile salt export pump)	AC50 [3]	AC50 [4]	AC50 [5]	AC50 (D(3) dopamine receptor)	AC50 [6]	AC50 [7]	AC50 [8]	AC50 [9]	AC50 [10]
CC[C@H]1OC(=O)[C@H](C)[C@@H](O[C@H]2C[C@@](C)(OC)[C@@H](O)[C@H](C)O2)[C@H](C)[C@@H](O[C@@H]2O[C@H](C)C[C@H](N(C)C)[C@H]2O)[C@](C)(O)C[C@@H](C)CN(C)[C@H](C)[C@@H](O)[C@]1(C)O [AZITHROMYCIN]	> 30 µM	> 10 µM	200 µM	> 10 µM	> 10 µM	> 10 µM	> 10 µM	> 10 µM	> 10 µM	> 10 µM	> 30 µM	> 10 µM
COCCCN1CCC(NC(=O)c2cc(Cl)c(N)c3c2OCC3)CC1 [PRUCALOPRIDE]	> 30 µM	28 µM	> 300 µM	> 30 µM	> 30 µM	> 30 µM	> 30 µM	> 30 µM	> 30 µM	14 µM	> 30 µM	> 30 µM
Cc1cccc(Nc2ccccc2C(=O)O)c1C [MEFENAMIC ACID]	> 10 µM	> 30 µM	150 µM	> 10 µM	> 10 µM	> 10 µM	> 30 µM	> 10 µM	> 10 µM	> 10 µM	> 10 µM	> 10 µM
Clc1ccc(C(c2ccccc2Cl)C(Cl)Cl)cc1 (stereo unspecified) [MITOTANE]	> 10 µM	> 30 µM	41 µM	> 10 µM	> 10 µM	> 10 µM	> 30 µM	> 10 µM	> 10 µM	> 10 µM	> 10 µM	> 10 µM
O=C1Nc2ccc(Cl)cc2[C@@](C#CC2CC2)(C(F)(F)F)O1 [EFAVIRENZ]	> 30 µM	> 30 µM	110 µM	19 µM	> 10 µM	> 10 µM	> 30 µM	> 30 µM	15 µM	> 30 µM	> 30 µM	18 µM
